Measured values from patent US11654178B2, “Cyclic prosaposin peptides and uses thereof” (CHILDREN'S MEDICAL CENTER CORPORATION, priority 2014, dated 2023).
Where a SMILES comes first, the peptide text is derived from it. Where no end group is shown, it is not given here. [ ]: non-standard residue; d: D form.

Tests used:
Tsp-1 = Tsp-1 expression in lungs of mice pretreated with PC3M-LN4 conditioned media (western blot); assay type: in vivo, C57BL6/J mice; conditions: dose of 10 mg/kg, 3 days, LN4 CM
Method: The activity of the 1,3-d-amino acid Psap peptide and the native Psap peptide were tested in vivo. The peptides were systematically administered to C57BL6/J mice that were pretreated with conditioned media (CM) from PC3M-LN4 (LN4) cells, which previously mimicked the systemic properties of metastatic tumors by repressing the expression of Tsp-1 in the lungs of mice (3, 4). After 3 days of treatment with LN4 CM alone or in combination with two different doses (10 mg/kg/day and 30 mg/kg/day) of d- and 1-amino acid peptides (independently) protein pools were prepared from the harvested lungs of each treatment group. The level of Tsp-1 expression in the lungs of these mice were assessed by western blot analysis. It was observed that the 1,3-d-amino acid peptide stimulated Tsp-1 3-fold greater than the native peptide (FIG. 12B). […] Based on the observation that the in vitro activity of the two peptides was virtually identical, it was concluded that the difference in activity in vivo was due to a difference in stability.

[1] = system: primary human ovarian cancer cell lines; assay: Cell number (Wst-1) and apoptosis (Annexin V/PI FACS) of patient derived ovarian cancer cell lines; assay type: cell-based
Text: FIGS. 12A-12E show stimulation of Tsp-1 and its effects on ovarian cancer cell growth and survival. FIG. 12A is a western blot of Tsp-1 and β-actin in WI-38 lung fibroblasts that were untreated (−) or treated with native DWLP (SEQ ID NO: 6), L-amino acid, prosaposin peptide (WT), dWIP (SEQ ID NO: 5, lower case d and 1 indicate D-amino acids) prosaposin peptide (d1.3) or DwLp (SEQ ID NO: 7, lower case w and p indicate D-amino acids) prosaposin peptide (d2,4): […] is a western blot of Tsp-1 and β-actin in mouse lung tissue harvested from mice treated with metastatic prostate cancer cell conditioned media alone (−) or in combination with DWLP (SEQ ID NO: 6) prosaposin peptide (WT) or dWIP (SEQ ID NO: 5, lower case d and l indicate D-amino acids) prosaposin peptide (d1,3 peptide) at doses of 10 and 30 mg/kg/day for 3 days; FIG. 12C is a western blot of CD36 and β-actin in 8 patient derived ovarian cancer cell lines; FIG. 12D is a plot of cell number as measured by Wst-1 assay of a patient derived ovarian cancer cell line treated with 1 μM recombinant human Tsp-1 (rhTsp-1) for 24, 48 and 72 hours; and FIG. 12E is a FACS analysis of Annexin V and PI of a patient derived ovarian cancer cell line treated with 1 μM recombinant human Tsp-1 (rhTsp-1) for 48 hours.
In order to test the efficacy of the d-amino acid Psap peptide, a suitable tumor model that would represent a potential clinical application for the peptide, was determined. Given that Psap, and the peptide derived from it, stimulates Tsp-1 in bone marrow derived cells that are recruited to sites of metastasis, a specific type of cancer that expressed the receptor for Tsp-1 that mediates its pro-apoptotic activity, CD36 was sought to be identified (5). It has been reported that serous ovarian epithelial cells and human ovarian cancer cells express CD36 (11-13). […] Three of these cell lines were treated with recombinant human Tsp-1 for up to 72 hours and determined its effect on cell number and apoptosis.

[2] = Stability in human plasma at 37° C., read out as Tsp-1 stimulation in WI-38 fibroblasts (ELISA); assay type: in vitro ADME; conditions: 24 hours
Method: The cyclic peptide DWLPK (SEQ ID NO: 1) was also tested for stability in human plasma compared to the linear peptide dWIP (SEQ ID NO: 5). Each peptide was incubated in human plasma at 37 degrees Celsius, for 2, 4, 8, or 24 hours.
Cyclization also has the effect of increasing the stability of peptides by forcing them into a conformation that is not recognized by most naturally occurring proteases (9, 10, 14-18). The stability of the cyclic peptide to the linear d-amino acid peptide in human plasma was compared.

DF14 cells = assay: PDX model of established ovarian cancer metastases, d-amino acid Psap peptide; assay type: in vivo; design: mice that died from adverse side effects / decrease of total body weight: dose or concentration left out as unconfirmed; conditions: for body weight: 40 mg/kg QD, FIG. 16
Text: 75 percent of ovarian cancer patients already have disseminated disease at the time of first diagnosis (E. Lengyel, Ovarian cancer development and metastasis. Am J Pathol 177, 1053-1064 (2010)). For these patients inhibiting metastasis would have limited therapeutic benefit. Rather, these patients require a therapeutic agent that can regress or, at the very least, stabilize existing metastases. Whether the d-amino acid Psap peptide could have therapeutic efficacy in a model of established metastatic dissemination was investigated. 1×10^6 DF14 cells, expressing firefly luciferase, were injected into the peritoneal cavity of SCID mice to mimic the route of dissemination of human ovarian cancer. The growth of metastatic colonies in the mice in real time were monitored via relative luciferase intensity and when the average intensity of the luciferase signal was 0.5-1×10^8 RLU, treatment with vehicle (saline), the d-amino acid peptide (40 mg/kg QD), or cisplatin (4 mg/kg QOD) was started. […] However, during those 20 days half of the cisplatin treated mice died from adverse side effects of the drug as defined by total body weight, which decreased by 40% (FIG. 13C). Moreover, after 20 days the tumors in the group of cisplatin treated mice that survived began to grow, despite continued treatment with cisplatin, and all the remaining mice died within 10 days (FIG. 13A).
The livers and spleens of the Psap peptide treated mice were examined histologically (H&E) to determine whether there were any micrometastases.
Metastases in the peritoneal cavity recruited Cd11b^+/Gr1^+ bone marrow derived cells, analogous to lung metastases was investigated (3). […] The fluid was FACS sorted from these mice to assess the population of Cd11^+/Gr1^+ bone marrow derived cells. […] Based on these findings it was concluded that the Psap peptide was able to dramatically regress established metastases to the point where no detectable lesions could be found.

thrombospondin-1 (Tsp-1) = assay: Tsp-1 activation in cultured cells by Western blot; assay type: cell-based
Method: Cells were cultured and contacted with 4 micrograms/mL or 10 micrograms/mL of each peptide and the level of thrombospondin-1 (Tsp-1) activation was measured by Western blot. Tsp-1 has been previously shown to be activated by Saposin A protein.

## native peptide: native DWLP (SEQ ID NO: 6), L-amino acid, prosaposin peptide (WT)
Tsp-1
  Tsp-1 stimulation in lungs: did not significantly stimulate Tsp-1

## RhTsp-1: recombinant human Tsp-1 (thrombospondin-1)
[1]; 1 μM, 48 hours, FIG. 12E
  apoptotic cells (Anexin V positivity) by FACS: 30-60%
[1]; three cell lines, up to 72 hours, 1 μM, FIG. 12D
  decrease in total cell number, of the original number of cells plated: up to 50%

## CC(C)C[C@@H](NC(=O)[C@H](Cc1c[nH]c2ccccc12)NC(=O)[C@H](N)CC(=O)O)C(=O)N1CCC[C@H]1C(=O)O [linear dWIP, reference compound] (H-[dD]W[dL]P-OH; N-terminus and C-terminus assumed)
[2]; 37 degrees Celsius, FIG. 3
  ability to activate Tsp-1 after incubation in human plasma: significantly less activity
[2]; 37° C., ELISA
  Tsp-1 stimulation after incubation in human plasma: no longer able to stimulate Tsp-1
DF14 cells; listed as Psap peptide
  body weight: no loss of body weight
DF14 cells; listed as psap peptide
  body weight: no effect on body weight

## N.N.[Cl][Pt][Cl] [cisplatin]
[1]; FIG. 12E, compared with Tsp-1 treatment
  necrosis (low Anexin V and high PI staining): much greater percentage of ovarian cancer cells underwent necrosis
DF14 cells; after day 20 of treatment
  time until all remaining mice died: ≤ 10 days
DF14 cells; during first 20 days
  decrease of total body weight: 40%
  mice that died from adverse side effects: half
DF14 cells; first 20 days of treatment, peptide 40 mg/kg QD, cisplatin 4 mg/kg QOD
  tumor volume as determined by luciferase intensity: able to regress tumor volume
DF14 cells; surviving mice, cisplatin 4 mg/kg QOD
  tumor growth after 20 days despite continued treatment: began to grow

## CC(C)C[C@@H]1NC(=O)[C@H](Cc2c[nH]c3ccccc23)NC(=O)[C@@H](CC(=O)O)NC(=O)[C@H](CCCCN)NC(=O)[C@@H]2CCCN2C1=O [cyclic dWLPK] (cyclo(K[dD]WLP))
thrombospondin-1 (Tsp-1); cyclic peptides, 4 micrograms/mL or 10 micrograms/mL, Western blot, FIG. 2
  effectiveness at increasing the level of Tsp-1: least effective

## linear DWGPK: linear version of peptide DWGPK (SEQ ID NO: 2) (not fully specified) [reference compound]
thrombospondin-1 (Tsp-1); similar study with linear versions
  effectiveness at increasing Tsp-1, linear versions of the peptides: more effective than linear DWLPK
